Laboratory results from US6352993B1, “Pyrimidine derivatives and processes for the preparation thereof” (Yuhan Corporation, priority 1997, dated 2002).

Columns and labels:
[1] = biological target: proton pump (H+/K+-ATPase) (UniProt P19156); assay: Inhibition of proton pump (H+/K+-ATPase activity); format: biochemical; parameters: other: K+-stimulated proton pump activity, pH 6.0, 37°; settings: K+-stimulated proton pump activity, pH 6.0, 37° C., 30 minutes preincubation; read-out: IC50 (concentration inhibiting 50% of the proton pump activity)
Protocol: (§1) Test 1: Inhibition of proton pump (H^+/K^+-ATPase activity)
(§2) A proton pump enzyme was prepared by the same method as in the Experiment 1-1 of WO 94/14795. Further, the inhibitory effect of proton pump activity was measured by the same method as in Experiment 1-2 of WO 94/14795.
(§3) Namely, the proton pump activity stimulated by Mg^++ was used as a negative comparative group, and the activity stimulated by Mg^++ and K^+ was used as a positive comparative group. The comparative compound was omeprazole.
(§4) Test tubes were divided into 4 groups: Group 1 as negative comparative group(n=3), Group 2 as positive comparative group(n=3), Group 3(n=5×2) to be administered with the compound of the present invention and Group 4(n=5×2) to be administered with the comparative compound.
(§5) The inhibitory effects of Groups 3 and 4 on proton pump activity were measured by employing the compound prepared in Examples and omeprazole, respectively, each of which was dissolved in dimethylsulfoxide at 5 different concentrations.
(§6) To each of Groups 1, 2, 3 and 4 were added 100 μl of magnesium chloride(40 mM) dissolved in 40 mM Tris-HCI buffer(ph 6.0) and 100 μg of the enzyme source. The 50 μl of potassium chloride(50 mM) and 50 μl of ammonium chloride(6 mM) dissolved in 40 mM Tris-HCl buffer(pH 6.0) were added to all groups except for group 1.
(§7) 10 μl of dimethylsulfoxide was added to each of Groups 1 and 2; and to Group 3 was added 10 μl of dimethylsulfoxide solution prepared by dissolving compound of EXAMPLE at 5 different concentration(n=5×2). To Group 4, 10 μl of the solution prepared by dissolving omeprazole in dimethylsulfoxide at 5 different concentration(37.6, 21.4, 12.2, 7.0 and 4.0 μM) was added(n=5×2). 40 mM Tris-HCI buffer(pH=6.0) was added thereto so as to make the total volume 400 μl.
(§8) Thereafter, the test tube of each Group were placed at 37° C. for 30 minutes for the preincubation. 100 μl ATP solution (6.6 mM) was added until the reaction volume became 500 μl. After the reaction was carried out at 37° C. for 30 minutes, 25% cold trichloroacetic acid was added to terminate the enzyme reaction. The released inorganic phosphate was measured by an automatic analyzer(Express 550, coming).
(§9) The difference between Group 1 and Group 2 represents the proton pump activity activated by K^+ only. The IC50s of Group 3 and 4 were calculated from Litchfield-wilcoxon equation[see, e.g., J. Pharrnacol. Exp. Ther., 96, 99(1949)]. The concentrations of the test compounds inhibiting 50% of the proton pump activity are represented as IC50 in Table 1.

[2] = biological target: proton pump (H+/K+-ATPase) (UniProt P19156); assay: Inhibition of proton pump (H+/K+-ATPase activity); format: biochemical; parameters: Effect ratio; settings: relative to omeprazole IC50
Protocol: as §1, §2, §3, §4, §5, §6, §7, §8, §9

[3] = system: gastric secretion in pylorus-ligated Sprague-Dawly rats; assay: Inhibition of gastric secretion (pylorus-ligated rats, Shay method); format: in vivo; settings: 20 mg/kg intraduodenally, 5 hours; for Relative conc.: gastric juice acidity relative to omeprazole, equation (II); for Relative volume: gastric juice amount relative to omeprazole, equation (I); for Relative Acid Output: total acid output relative to omeprazole, equation (III)
Protocol: Test 2: Inhibition of gastric secretion
In accordance with the method disclosed in Shay, H., et al., Gastroenterology 5 43-61(1945), Test 2 was carried out.
Sprague-Dawly rats having a body weight of 170±10 g were divided into 3 groups(n=5) and deprived of food for 24 hours before the experiment with free access to water. Under ether anesthesia, the abdomen was incised, and the pylorus was ligated. As a comparative group, Group 1 was administered intraduodenally in a volume of 0.5 ml/200 g of 30% aqueous polyethylene glycol 400 solution. Groups 2 and 3 were administered intraduodenally with the compound of Example and omeprazole, respectively, each of which was suspended in 30% aqueous polyethylene glycol 400 solution at a concentration of 20 mg/kg. After closing the abdominal cavity, the rats were placed for 5 hours and then killed by cervical dislocation. The stomach was extracted to obtain gastric juice.
Tne gastric juice was centrifuged at 1,000 g to remove precipitates. The amount and acidity of the gastric juice were measured. Relative volumes, relative acid concentrations and relative acid outputs of the test compounds were calculated from equations(I), (II) and (III) and the results are shown in Table 2.
Relative volume=(the average amount of gastric juice of Group 1—the average amount of gastric juice of Group 2)/(the average amount of gastric juice of Group 1−the average amount of gastric juice of Group 3)—(I)
Relative acid concerntration=(the average acidity of Group 1—the average acidity of Group 2)/(the average acidity of Group 1—the average acidity of Group 3)—(II)
Relative acid output (the total amount of acid output of Group 1—the total amount of acid output of Group 2)/(the total amount of acid output of Group 1—the total amount of acid output of Group 3)—(m)

Row | Compound | IC50 [1] [nM] | Effect ratio [2] | Relative conc. [3] | Relative volume [3] | Relative Acid Output [3]
1 | CCCNc1nc(COC)c(C)c(N2CCc3ccccc3C2)n1.Cl [Example 25, 6-methoxymethyl-5-methyl-2-(2-methylethylamino)-4-(1,2,3,4-tetrahydroisoquinolin-2-yl)pyrimidine hydrochloride] | 1850 | 6.0 | 0.52 | 1.00 | 0.86
2 | COCc1nc(Nc2ccc(F)cc2)nc(N2CCc3ccccc3C2)c1C.Cl [Example 26, 6-methoxymethyl-5-methyl-2-(4-fluorophenylamino)-4-(1,2,3,4-tetrahydroisoquinolin-2-yl)pyrimidine hydrochloride] | 2600 | 4.3 | 0.64 | 0.67 | 0.74
3 | Cc1csc(Nc2nc(C)c(C)c(N3CCc4ccccc4C3)n2)n1.Cl [Example 23, 5,6-dimethyl-2-(4-methylthiazol-2-yl)amino-4-(1,2,3,4-tetrahydroisoquinolin-2-yl)pyrimidine hydrochloride] | 430 | 25.8 | 1.34 | 1.58 | 1.23
4 | COCc1nc(Nc2ccc(F)cc2C)nc(N2CCc3ccccc3C2C)c1C.Cl (stereo not drawn) [Example 29, 6-methoxymethyl-5-methyl-2-(2-methyl-4-fluorophenylamino)-4-(1-methyl-1,2,3,4-tetrahydroisoquinolin-2-yl)pyrimidine hydrochloride] | 2550 | 4.4 | 0.81 | 0.78 | 0.88
5 | Cc1nc(Nc2ccc(F)cc2)nc(N2CCc3cc(O)ccc3C2C)c1C.Cl (stereo not drawn) [Example 36, 5,6-dimethyl-2-(4-fluorophenylamino)-4-(1-methyl-6-hydroxy-1,2,3,4-tetrahydroisoquinolin-2-yl)pyrimidine hydrochloride] | 310 | 35.8 | 1.08 | 1.05 | 1.15
6 | COCc1nc(Nc2ccccc2)nc(N2CCc3ccccc3C2C)c1C.Cl (stereo not drawn) [Example 31, 6-methoxymethyl-5-methyl-2-phenylamino-4-(1-methyl-1,2,3,4-tetrahydroisoquinolin-2-yl)pyrimidine hydrochloride] | 2560 | 4.3 | 0.97 | 1.06 | 1.01
7 | COCc1nc(Nc2ccc(F)cc2C)nc(N2CCc3ccccc3C2)c1C.Cl [Example 27, 6-methoxymethyl-5-methyl-2-(4-fluoro-2-methylphenylamino)-4-(1,2,3,4-tetrahydroisoquinolin-2-yl)pyrimidine hydrochloride] | 1550 | 7.2 | 0.68 | 0.99 | 0.90
8 | COCc1nc(Nc2ccc(F)cc2)nc(N2CCc3ccccc3C2C)c1C.Cl (stereo not drawn) [Example 28, 6-methoxymethyl-5-methyl-2-(4-fluorophenylamino)-4-(1-methyl-1,2,3,4-tetrahydroisoquinolin-2-yl)pyrimidine hydrochloride] | 1740 | 6.4 | 0.60 | 0.78 | 0.78
9 | Cc1ccccc1Nc1nc(CO)c(C)c(N2CCc3ccccc3C2C)n1.Cl (stereo not drawn) [Example 34, 6-hydroxymethyl-5-methyl-2-(2-methylphenylamino)-4-(1-methyl-1,2,3,4-tetrahydroisoquinolin-2-yl)pyrimidine hydrochloride] | 430 | 25.8 | 0.45 | 0.81 | 0.78
